Data taken from US20110097405A1, “ESTRADIOL-CONTAINING DRUG DELIVERY SYSTEM” (Bayer Schering Pharma Aktiengesellschaft, priority 2008, published 2011).

How the values were obtained:
[1] = Clinical study (PK study): relative bioavailability and PK profile of estradiol after wafers vs oral tablet and intranasal spray; format: in vivo, healthy postmenopausal women; details: female, human
Description: Finally, it is the present inventors' experience that the serum estradiol values are somewhat dependent on the applied laboratory assay.
The following not-dose-normalised data, where all parameters are expressed in percentage of the respective Aerodiol® values, were obtained:
Estradiol may be determined by two different assays:
The analytes and their deuterated internal standards are extracted from 1.00 ml of human serum using BondElut Certify® solid-phase cartridges. Estradiol and estrone are eluted from the solid phase cartridges with ethyl acetate. The analytes undergo three separate derivatisation steps: (1) reaction with pentafluorobenzoyl chloride, (2) reaction with O-(2,3,4,5,6-pentafluorobenzyl)-hydroxylamine hydrochloride, and (3) reaction with MSTFA. The derivatised analytes are then separated by gas chromatography using a DB-17 fused silica capillary column and detected by tandem mass spectrometry using negative ion chemical ionization. A 1/(concentration)^2 weighted least-squares regression procedure is used to fit a linear function to the calibration data.
A 500 μl sample aliquot is fortified with 25 μl of internal standard working solution. Analytes are isolated through liquid-liquid extraction with 5.0 ml of 10:90 (v/v) ethyl acetate/hexane. The solvent is evaporated under a stream of nitrogen at 40-50° C. and the remaining residue is derivatizsd. The derivatised analytes are extracted into 3.0 m of 10:90 (v/v) ethyl acetate/hexane, the solvent is evaporated, and the remaining residue is reconstituted with 150 μl acetonitrile and 200 μl water. The final extract is analyzed via high-performance liquid chromatography with tandem mass spectrometry detection.

[2] = Kuhnt et al.; cited from earlier work
[3] = intranasal, cited from earlier work

SMILES	bioavailability ([1]; in vivo)	bioavailability, usually ([1]; in vivo)	Cmax ([1]; serum, 90 ug)	bioavailability after oral administration [2]	time until pre-treatment level is reached ([3]; after administration)	time to maximum plasma levels [3]
CCCCC(=O)O[C@H]1CC[C@H]2[C@@H]3CCc4cc(O)ccc4[C@H]3CC[C@]12C [estradiol valerate]	30-60%	30-50%				
C[C@]12CC[C@@H]3c4ccc(O)cc4CC[C@H]3[C@@H]1CC[C@@H]2O [estradiol]			0.5 to 0.8 ng/mL	about 5%	about 12 hours	10 to 30 min
